Measured values taken from article PMC8963254, “Effects of Lysine N-ζ-Methylation in Ultrashort Tetrabasic Lipopeptides (UTBLPs) on the Potentiation of Rifampicin, Novobiocin, and Niclosamide in Gram-Negative Bacteria” (Antibiotics, 2022).
In brackets after ≈: the same amount, converted by molar mass. Where two headings read alike, the source gives them in different places. Blank lines part the entries; values can stand above or below the molecule they belong to. Non-standard residues stand in square brackets, D forms with d. Residues, ends and D or L forms follow the SMILES beside them. *: point of attachment. Lys(Me3) = C[N+](C)(C)CCCC[C@H](N)C(=O)O; Lys(Me2) = CN(C)CCCC[C@H](N)C(=O)O; Octanoyl = CCCCCCCC(=O)*

Legend:
[1] = test system: E. coli ATCC 25922; assay type: cell-based, Escherichia coli; conditions: ATCC 25922, 18 h
Procedure, shortened: (§1)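 Minimum inhibitory concentration came from a CLSI broth dilution assay: 18 h at 37 °C, inoculum 5 × 10^5 CFU/mL final.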

[2] = test system: E. coli 94393; assay type: cell-based, Escherichia coli; conditions: for MICUTBLP: UTBLP alone
Procedure, shortened: (§2)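 Checkerboard synergy assay: antibiotic and OMP combined at varying concentrations with 5 × 10^5 CFU/mL inoculum (final), 37 °C, 18 h; growth read as turbidity at 590 nm. FICI = sum of FICs (MIC in combination / MIC alone); ≤0.5 synergistic, 0.5–4 additive, >4 antagonistic.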

[3] = test system: E. coli ATCC 25922; assay type: cell-based, Escherichia coli; conditions: for MICUTBLP: UTBLP alone
Procedure, shortened: as §2

[4] = test system: E. faecium ATCC 27270; assay type: cell-based, Enterococcus faecium; conditions: for Interpretation: UTBLP + chloramphenicol; for MICUTBLP: UTBLP alone, plate with chloramphenicol; for MICUTBLP [MICcombo]: UTBLP in combination with chloramphenicol; for MICchloramphenicol [MICcombo]: chloramphenicol in combination with the UTBLP
Procedure, shortened: as §2

[5] = test system: MRSA ATCC 33592; assay type: cell-based, Staphylococcus aureus; conditions: ATCC 33592, 18 h
Procedure, shortened: as §1

[6] = test system: S. aureus ATCC 29213; assay type: cell-based, Staphylococcus aureus; conditions: ATCC 29213, 18 h
Procedure, shortened: as §1

[7] = test system: E. faecalis ATCC 29212; assay type: cell-based, Enterococcus faecalis; conditions: ATCC 29212, 18 h
Procedure, shortened: as §1

[8] = test system: P. aeruginosa PA262-101856; assay: microbe, parasite or virus in culture; assay type: cell-based, Pseudomonas aeruginosa; conditions: PA262-101856, 18 h
Procedure, shortened: as §1

[9] = test system: P. aeruginosa PA259-96196; assay: microbe, parasite or virus in culture; assay type: cell-based, Pseudomonas aeruginosa; conditions: PA259-96196, 18 h
Procedure, shortened: as §1

[10] = test system: MRSA ATCC 33592; assay type: cell-based, Staphylococcus aureus; conditions: for Interpretation: UTBLP + chloramphenicol; for MICUTBLP: UTBLP alone, plate with chloramphenicol; for MICUTBLP [MICcombo]: UTBLP in combination with chloramphenicol; for MICchloramphenicol [MICcombo]: chloramphenicol in combination with the UTBLP
Procedure, shortened: as §2

[11] = test system: S. aureus ATCC 29213; assay type: cell-based, Staphylococcus aureus; conditions: for MICUTBLP: UTBLP alone, plate with chloramphenicol; for MICUTBLP [MICcombo]: UTBLP in combination with chloramphenicol; for MICchloramphenicol [MICcombo]: chloramphenicol in combination with the UTBLP
Procedure, shortened: as §2

[12] = test system: E. faecium ATCC 27270; assay type: cell-based, Enterococcus faecium; conditions: ATCC 27270, 18 h
Procedure, shortened: as §1

[13] = test system: K. pneumoniae 113250; assay type: cell-based, Klebsiella pneumoniae; conditions: for MICUTBLP: UTBLP alone
Procedure, shortened: as §2

[14] = test system: E. cloacae 118564; assay type: cell-based, Enterobacter cloacae; conditions: for MICUTBLP: UTBLP alone
Procedure, shortened: as §2

[15] = test system: MRSE 61589; assay type: cell-based, Staphylococcus epidermidis; conditions: 61589, 18 h
Procedure, shortened: as §1

[16] = test system: MSSE 81388; assay type: cell-based, Staphylococcus epidermidis; conditions: 18 h
Procedure, shortened: as §1

[17] = UTBLP in combination with novobiocin
[18] = UTBLP in combination with rifampicin
[19] = novobiocin in combination with the UTBLP
[20] = rifampicin in combination with the UTBLP
[21] = UTBLP in combination with chloramphenicol
[22] = UTBLP in combination with niclosamide
[23] = chloramphenicol in combination with the UTBLP
[24] = niclosamide in combination with the UTBLP

MIC [1]: 64 mg/L (≈ 62.6 µM)
MICUTBLP ([2]; plate with novobiocin): 64 µg/mL
MICUTBLP ([2]; plate with rifampicin): 64 µg/mL
MICUTBLP [MICcombo] [2, 17]: 4 µg/mL
MICUTBLP [MICcombo] [2, 18]: 8 µg/mL
MICantibiotic [MICcombo] [2, 19]: 2 µg/mL
MICantibiotic [MICcombo] [2, 20]: 0.5 µg/mL
MICUTBLP ([3]; plate with chloramphenicol): 64 µg/mL
MICUTBLP ([3]; plate with niclosamide): 64 µg/mL
MICUTBLP ([3]; plate with novobiocin): 64 µg/mL
MICUTBLP ([3]; plate with rifampicin): 64 µg/mL
MICUTBLP [MICcombo] [3, 21]: 16 µg/mL
MICUTBLP [MICcombo] [3, 22]: 4 µg/mL
MICUTBLP [MICcombo] [3, 17]: 2 µg/mL
MICUTBLP [MICcombo] [3, 18]: 8 µg/mL
MICantibiotic [MICcombo] [3, 23]: 0.5 µg/mL
MICantibiotic [MICcombo] [3, 24]: 1 µg/mL
MICantibiotic [MICcombo] [3, 19]: 2 µg/mL
MICantibiotic [MICcombo] [3, 20]: 0.125 µg/mL
MICUTBLP [4]: 128 µg/mL
MICUTBLP [MICcombo] [4]: 0.25 µg/mL
MICchloramphenicol [MICcombo] [4]: 4 µg/mL
MIC [5]: >128 mg/L
MIC [6]: >128 mg/L
MIC [7]: 64 mg/L (≈ 62.6 µM)
MIC [8]: > 128 mg/L
MIC [9]: > 128 mg/L
MICUTBLP [10]: > 128 µg/mL
MICUTBLP [MICcombo] [10]: 0.25 µg/mL
MICchloramphenicol [MICcombo] [10]: 64 µg/mL
MICUTBLP [11]: > 128 µg/mL
MICUTBLP [MICcombo] [11]: 0.25 µg/mL
MICchloramphenicol [MICcombo] [11]: 8 µg/mL
MIC [12]: 128 mg/L (≈ 125 µM)
MICUTBLP ([13]; plate with novobiocin): > 128 µg/mL
MICUTBLP ([13]; plate with rifampicin): > 128 µg/mL
MICUTBLP [MICcombo] [13, 17]: 8 µg/mL
MICUTBLP [MICcombo] [13, 18]: 16 µg/mL
MICantibiotic [MICcombo] [13, 19]: 8 µg/mL
MICantibiotic [MICcombo] [13, 20]: 2 µg/mL
MICUTBLP ([14]; plate with novobiocin): > 128 µg/mL
MICUTBLP ([14]; plate with rifampicin): > 128 µg/mL
MICUTBLP [MICcombo] [14, 17]: 16 µg/mL
MICUTBLP [MICcombo] [14, 18]: 16 µg/mL
MICantibiotic [MICcombo] [14, 19]: 4 µg/mL
MICantibiotic [MICcombo] [14, 20]: 1 µg/mL
MIC [15]: 32 mg/L (≈ 31.3 µM)
MIC [16]: 32 mg/L (≈ 31.3 µM)
Compound: CCCCCCCC(=O)NCCCC[C@H](NC(=O)CCCCCCC)C(=O)N[C@@H](CCCCN(C)C)C(=O)N[C@@H](CCCCN(C)C)C(=O)N[C@@H](CCCCN(C)C)C(=O)N[C@@H](CCCCN(C)C)C(N)=O [UTBLP 7] (Octanoyl-K(Octanoyl)[Lys(Me2)][Lys(Me2)][Lys(Me2)][Lys(Me2)]-NH2)
Interpretation ([2]; UTBLP + novobiocin): Synergy (FICI ≤ 0.5 is synergistic)
Interpretation ([2]; UTBLP + rifampicin): Synergy (FICI ≤ 0.5 is synergistic)
Interpretation ([3]; UTBLP + chloramphenicol): Synergy (FICI ≤ 0.5 is synergistic)
Interpretation ([3]; UTBLP + niclosamide): Synergy (FICI ≤ 0.5 is synergistic)
Interpretation ([3]; UTBLP + novobiocin): Synergy (FICI ≤ 0.5 is synergistic)
Interpretation ([3]; UTBLP + rifampicin): Synergy (FICI ≤ 0.5 is synergistic)
Interpretation [4]: Additive (0.5 < x ≤ 4 is additive)
Interpretation [10]: Additive (0.5 < x ≤ 4 is additive)
Interpretation ([13]; UTBLP + novobiocin): Synergy (FICI ≤ 0.5 is synergistic)
Interpretation ([13]; UTBLP + rifampicin): Synergy (FICI ≤ 0.5 is synergistic)
Interpretation ([14]; UTBLP + novobiocin): Synergy (FICI ≤ 0.5 is synergistic)
Interpretation ([14]; UTBLP + rifampicin): Synergy (FICI ≤ 0.5 is synergistic)

MIC [1]: >128 mg/L
MICUTBLP ([2]; plate with novobiocin): 128 µg/mL
MICUTBLP ([2]; plate with rifampicin): 128 µg/mL
MICUTBLP [MICcombo] [2, 17]: 16 µg/mL
MICUTBLP [MICcombo] [2, 18]: 16 µg/mL
MICantibiotic [MICcombo] [2, 19]: 16 µg/mL
MICUTBLP ([3]; plate with chloramphenicol): > 128 µg/mL
MICUTBLP ([3]; plate with niclosamide): > 128 µg/mL
MICUTBLP ([3]; plate with novobiocin): > 128 µg/mL
MICUTBLP ([3]; plate with rifampicin): > 128 µg/mL
MICUTBLP [MICcombo] [3, 21]: 8 µg/mL
MICUTBLP [MICcombo] [3, 22]: 8 µg/mL
MICUTBLP [MICcombo] [3, 17]: 16 µg/mL
MICUTBLP [MICcombo] [3, 18]: 16 µg/mL
MICantibiotic [MICcombo] [3, 23]: 2 µg/mL
MICantibiotic [MICcombo] [3, 24]: 8 µg/mL
MICantibiotic [MICcombo] [3, 19]: 2 µg/mL
MICantibiotic [MICcombo] [3, 20]: 1 µg/mL
MICUTBLP [4]: > 128 µg/mL
MICUTBLP [MICcombo] [4]: 0.25 µg/mL
MICchloramphenicol [MICcombo] [4]: 4 µg/mL
MIC [5]: >128 mg/L
MIC [6]: >128 mg/L
MIC [7]: 128 mg/L
MIC [8]: > 128 mg/L
MIC [9]: > 128 mg/L
MICUTBLP [10]: > 128 µg/mL
MICUTBLP [MICcombo] [10]: 0.25 µg/mL
MICchloramphenicol [MICcombo] [10]: 64 µg/mL
MICUTBLP [11]: > 128 µg/mL
MICUTBLP [MICcombo] [11]: 0.25 µg/mL
MICchloramphenicol [MICcombo] [11]: 8 µg/mL
MIC [12]: 128 mg/L
MICUTBLP ([13]; plate with novobiocin): > 128 µg/mL
MICUTBLP ([13]; plate with rifampicin): > 128 µg/mL
MICUTBLP [MICcombo] [13, 17]: 16 µg/mL
MICUTBLP [MICcombo] [13, 18]: 16 µg/mL
MICantibiotic [MICcombo] [13, 19]: 32 µg/mL
MICantibiotic [MICcombo] [13, 20]: 4 µg/mL
MICUTBLP ([14]; plate with novobiocin): > 128 µg/mL
MICUTBLP ([14]; plate with rifampicin): > 128 µg/mL
MICUTBLP [MICcombo] [14, 17]: 16 µg/mL
MICUTBLP [MICcombo] [14, 18]: 16 µg/mL
MICantibiotic [MICcombo] [14, 19]: 32 µg/mL
MICantibiotic [MICcombo] [14, 20]: 4 µg/mL
MIC [15]: 128 mg/L
MIC [16]: 128 mg/L
Compound: CCCCCCCC(=O)NCCCC[C@H](NC(=O)CCCCCCC)C(=O)N[C@@H](CCCC[N+](C)(C)C)C(=O)N[C@@H](CCCC[N+](C)(C)C)C(=O)N[C@@H](CCCC[N+](C)(C)C)C(=O)N[C@@H](CCCC[N+](C)(C)C)C(N)=O [UTBLP 8] (Octanoyl-K(Octanoyl)[Lys(Me3)][Lys(Me3)][Lys(Me3)][Lys(Me3)]-NH2)
Interpretation ([2]; UTBLP + novobiocin): Synergy (FICI ≤ 0.5 is synergistic)
Interpretation ([2]; UTBLP + rifampicin): Additive (0.5 < x ≤ 4 is additive)
Interpretation ([3]; UTBLP + chloramphenicol): Synergy (FICI ≤ 0.5 is synergistic)
Interpretation ([3]; UTBLP + niclosamide): Synergy (FICI ≤ 0.5 is synergistic)
Interpretation ([3]; UTBLP + novobiocin): Synergy (FICI ≤ 0.5 is synergistic)
Interpretation ([3]; UTBLP + rifampicin): Additive (0.5 < x ≤ 4 is additive)
Interpretation [4]: Additive (0.5 < x ≤ 4 is additive)
Interpretation [10]: Additive (0.5 < x ≤ 4 is additive)
Interpretation ([13]; UTBLP + novobiocin): Synergy (FICI ≤ 0.5 is synergistic)
Interpretation ([13]; UTBLP + rifampicin): Synergy (FICI ≤ 0.5 is synergistic)
Interpretation ([14]; UTBLP + novobiocin): Synergy (FICI ≤ 0.5 is synergistic)
Interpretation ([14]; UTBLP + rifampicin): Additive (0.5 < x ≤ 4 is additive)
